The values that follow come from publication PMC11190223, “Identification of sulfakinin receptor regulating feeding behavior and hemolymph trehalose homeostasis in the silkworm, Bombyx mori” (Scientific Reports, 2024).

Assay [1] deals with BNGR-A9. Description: Fura-2 AM-based Ca^2+ mobilization assay, BNGR-A9. The class given is cell-based, Bombyx mori. The source says: (§1) The entire coding region of BNGR-A9 (NM_001134272.1) was obtained by PCR and subsequently cloned into pEGFP-N1 and pCMV-Flag vectors using the primers listed in Table S1. The Flag-BNGR-A9 construct was generated for functional assays, including CRE-luciferase, calcium mobilization, and ERK phosphorylation assays, while BNGR-A9-EGFP was created for receptor visualization purposes. Additionally, for expression in the BmN cell system, the BNGR-A9 gene was inserted into the pIZT/V5-His vector. All constructs were validated by DNA sequencing.
(§2) HEK293 cells were cultured with Dulbecco’s Modified Eagle’s Medium (Gibco, NY, USA) supplied with 10% Fetal bovine serum (Gibco, NY, USA) in a 37 °C humidified incubator containing 5% CO2. BmN cells were maintained in TC 100 insect medium (AppliChem, Darmstadt, Germany) supplied with 10% Fetal bovine serum in a 28 °C incubator. Both HEK293 and BmN cells were transfected with X-tremeGENE (Roche, Mannheim, Germany) according to the manufacturer’s instruction.
To monitor the changes of intracellular calcium, Fura-2 AM (Dojindo, Kumamoto, Japan) was utilized as the calcium indicator, following the methodology outlined in a previous study. Briefly, HEK293 cells stably expressing Flag-BNGR-A9 were exposed to various concentrations of Bombyx mori neuropeptides and measured using a fluorescence spectrometer (Tecan Infinite 200 PRO). Calcium levels were determined by the ratio of fluorescence excitation at 340 nm to that at 380 nm. If necessary, cells were pre-treated with U73122, FR900359, or KT5720 for 30 min prior to the initiation of the experiment. For assays involving BmN cells expressing pIZT-BNGR-A9, the procedures were conducted at 28 °C, and HBSS was replaced with HBM (Hepes-Buffered Medium: 140 mM NaCl, 5 mM KCl, 1 mM MgCl2, 1.2 mM Na2HPO4, 5 mM NaHCO3, 10 mM glucose, and 20 mM HEPES–NaOH, CaCl2 (1 mM), pH 6.2).
(§3) Data analysis was conducted using GraphPad Prism (San Diego, CA), with results presented as mean ± SEM. Statistical significance was assessed through Student’s t-test or two-way ANOVA with multiple comparisons, with p values below 0.05 denoted as significant (*p < 0.05, **p < 0.01, ***p < 0.001). Dose–response curves were generated via non-linear curve fitting. Adobe Photoshop was used to process images, ensuring uniform brightness and contrast settings across all conditions. All images and data provided represent findings from a minimum of three independent experiments.

Assay [2] can be described thus: Feeding behavior assay: larval body weight. The format is in vivo, Bombyx mori. The settings on record: injected daily, final concentration 10 nM, 5th instar larvae, days 2 and 4 post-injection vs control (HBM). The procedure: (§4) Synchronized larvae of the first day of 5th instar were chosen for feeding behavior assay. Silkworms were starved for 12 h to standardize the starting level. To knock down bngr-a9, 5 μg dsRNA/BNGR-A9 or dsRNA/EGFP was injected into the abdomen of the larvae at the indicated time using a 10 μl microsyringe. For silkworms, both treated and untreated with dsRNA, synthetic SK peptide (at a final concentration of 10 nM) was injected daily starting from the second day of the fifth instar. For each trial, twenty synchronized P50 larvae were used. After injection, the silkworm larvae were fed with enough mulberry leaves three times a day and maintained under standard conditions. Larval body weights and food consumption were measured every other day until pupation.

Assay [3] concerns BNGR-A9. Description: Receptor internalization assay, BNGR-A9-EGFP. The format is cell-based, Bombyx mori. The settings on record: BNGR-A9-EGFP stably expressing HEK293 cells; 100 nM, 30 min; fluorescence microscopy.
Excerpt: as §1
BNGR-A9-EGFP stably expressing HEK293 cells were seeded onto coverslips and incubated overnight under normal growth conditions. Subsequently, the cells were starved with fresh serum-free DMEM for 1 h and treated with either 100 nM BmsSK or BmnsSK. After a 30-min incubation period, the cells were washed three times with ice-cold PBS and fixed with 3% paraformaldehyde for 10 min at room temperature. The images were taken by a fluorescence microscopy (Leica, Germany).

Assay [4] deals with BNGR-A9. Description: ERK1/2 phosphorylation (western blot), BNGR-A9-expressing HEK293 cells. The format is cell-based, Bombyx mori. (Immunoblotting shows a protein as a band on a membrane.)
Assay [5] deals with ERK phosphorylation in silkworm brains. Description: ERK phosphorylation (western blot), silkworm larval brains ex vivo. On the set-up: species or system Bombyx mori. As to the method: HEK293 cells with Flag-BNGR-A9 were exposed to 100 nM BmsSK for different durations and then lysed using RIPA buffer (Beyotime, China). For ex vivo assays, brains from 5th instar silkworm larvae were treated with BmsSK (100 nM) for 1, 2, or 8 h, either with a pre-treatment of Gαq inhibitor FR900359 for 30 min or without it. After treatment, samples were lysed, homogenized, and their protein concentrations were determined with a BCA protein kit (Takara, Japan). For western blot analysis, equal amounts of protein lysate were used. Protein expression was analyzed using specific primary antibodies: rabbit monoclonal antibodies for total and phosphorylated ERK from Cell Signaling Technology (MA, USA).

Assay [6] deals with BNGR-A9. Description: CRE-driven luciferase reporter assay, BNGR-A9. Particulars: 4 h, at least three independent experiments; for EC50: dose-response. The class given is cell-based, Bombyx mori.
Excerpt: as §1, §2
HEK293 and BmN cells were transfected with the different Bombyx receptors (Flag-BNGR-A9, -A24, -A32, or A33 for HEK293 cells, and pIZT-BNGR-A9, -A24, -A32, or A33 for BmN cells) along with the corresponding CRE-reporter plasmid. When cell confluence reached 90–95%, they were treated with various concentrations of Bombyx mori neuropeptides, with or without forskolin. Following a 4-h incubation period, cells were lysed, and luciferase activities were determined using a firefly luciferase kit (Beyotime, Shanghai, China).
as §3
A general note: In a reporter assay the amount or activity of a reporter protein is the signal.

A short description of assay [7]: Feeding behavior assay: food consumption. The format is in vivo, Bombyx mori. Particulars: injected daily, final concentration 10 nM, 5th instar larvae; days 2 and 4 post-injection vs control (HBM). The procedure:
Double-stranded RNAs were synthesized using MEGAscript RNAi T7 Kit (Ambion, CA, USA) following the manufacturer’s instructions. Templates for in vitro transcription were generated by PCR using the primers containing the T7 polymerase promoter sequence at their 5′ ends, as listed in Table S1. For each 20-μl reaction, 1 μg PCR product was added as the template. Following transcription, the reaction mixture was purified by phenol/chloroform extraction and ethanol precipitation. The resulting dsRNA products were diluted with nuclease-free water to achieve the desired concentration (final volume of 2–5 μl).
as §4

Where no end group is shown, it is not given here. [ ]: non-standard residue; d: D form. sY = N[C@@H](Cc1ccc(OS(=O)(=O)O)cc1)C(=O)O

Regarding “BmsSK: Bombyx mori sulfated-sulfakinin, synthetic; sulfated version of GDDTFDD^8YGHLRF-NH2 (GDDTFDD[sY]GHLRF-NH2; N-terminus assumed; SMILES CC(C)C[C@H](NC(=O)[C@H](Cc1c[nH]cn1)NC(=O)CNC(=O)[C@H](Cc1ccc(OS(=O)(=O)O)cc1)NC(=O)[C@H](CC(=O)O)NC(=O)[C@H](CC(=O)O)NC(=O)[C@H](Cc1ccccc1)NC(=O)[C@@H](NC(=O)[C@H](CC(=O)O)NC(=O)[C@H](CC(=O)O)NC(=O)CN)[C@@H](C)O)C(=O)N[C@@H](CCCNC(=N)N)C(=O)N[C@@H](Cc1ccccc1)C(N)=O)”, the “Ca^2+ response” value in assay [1] (1 μM peptide, Fura-2 AM, BNGR-A9-expressing HEK293 and BmN cells, three independent experiments) was “triggered responses in BNGR-A9-expressing cells”. The “Ca^2+ response compared to BmnsSK” value in assay [1] (BNGR-A9-expressing HEK293 and BmN cells, Fura-2 AM) is “significantly greater Ca^2+ response”. Further, the EC50 (in general, the midpoint of the concentration-response curve) is 51.4 nM in assay [1] (BmN cells expressing BNGR-A9, Fura-2 AM, 28 °C, HBM pH 6.2, three independent experiments); 29 nM in assay [1] (HEK293 cells expressing BNGR-A9, Fura-2 AM, three independent experiments); 60 nM in assay [6] (BmN cells stably expressing BNGR-A9); 73.3 nM in assay [6] (HEK293 cells stably expressing BNGR-A9). Further, the results for the Body weight entry in assay [2] and in assay [2] (listed as synthetic sulfated- SK) were “weight loss” and “notably declined”, respectively. The Receptor internalization entry in assay [3] is “rapid and significant receptor redistribution within the cytoplasm”. Also, the ERK1/2 phosphorylation result in assay [4] (HEK293 cells expressing BNGR-A9, serum-starved 1 h) was “quick and dose-dependent increase in ERK1/2 phosphorylation”; in assay [5] (silkworm brains, 100 nM BmsSK), “quick and dose-dependent increase in ERK1/2 phosphorylation”. Further, the “Time of peak ERK1/2 phosphorylation” value was found to be 5 min in assay [4] (HEK293 cells, 10 nM BmsSK time course (Fig. 7A)) and 2 h in assay [5] (5th instar silkworm brains, 100 nM BmsSK for 1, 2 or 8 h). In addition, the “Activation of BNGR-A9 (CRE-driven luciferase activity)” value in assay [6] (HEK293 and BmN cells, 1 μM peptide, with or without forskolin (5 μM)) is recorded as “could activate BNGR-A9”. Moreover, the Food consumption entry in assay [7] is “notably declined”.
